The target of experiment [1] is T1, human Nav1.8/β1 (Homo sapiens, UniProt Q9Y5Y9).
T1 construct: host or cells: HEK293
Nature of the experiment: Compound Profiling Human NaV1.8/β1 Cell Line—Sophion QPatch II Assay (automated patch clamp, stably transfected HEK293 cells). The experiment is classed as cell-based. On the procedure:
Compounds were tested on recombinant human Nav1.8/β1 stably transfected HEK293 (Eurofins, CYL3025, St. Charles, MO) cells using the QPatch II system (Sophion Bioscience A/S, Ballerup—Denmark), an automated patch clamp device. Cells were cultured at 37° C./5% CO2 in DMEM/F-12 supplemented with 10% fetal bovine serum, 1× Non-Essential Amino Acids, and selection antibiotics (0.625 μg/mL Puromycin, 400 μg/mL Geneticin, and 100 μg/mL Hygromycin). One or two days prior to recording, cells were moved to a lower temperature 30° C./5% CO2 incubator to increase surface expression of the channels. On the day of the recordings, cells in culture dishes were washed twice with Ca^2+—Mg^2+ free DPBS and treated with Detachin (Genlantis, San Diego) for 3 minutes and then resuspended in Serum Free Medium (EX-CELL® ACF CHO Medium for Cell Culture (Sigma-Aldrich) supplemented with 0.04 mg/mL soybean trypsin Inhibitor and 25 mM HEPES (all components supplied by Sigma-Aldrich, St. Louis, MO) and allowed to recover for a minimum of 20 minutes in the onboard QStirrer. All experiments were performed at ambient temperature. Intracellular solution contained (mM): CsCl, 50; CsF, 90; MgCl2, 2; EGTA, 5; HEPES, 10; pH adjusted to 7.2 with CsOH. Extracellular solution contained (mM): NaCl, 137; KCl, 4; CaCl2), 3.8; MgCl2, 1; HEPES, 10; Glucose, 10; pH adjusted to 7.4 with NaOH. [LEFT OUT].
Compounds were tested in an interleaved manner across two cohorts of wells to develop an aggregate 8-point concentration response curve. Final concentrations include 0.1% DMSO and 0.03% pluronic Acid. In general, the concentration range spans a range from 0.01-300 nM. Compounds were diluted 1:10 with extracellular solution within their respective cohort. DMSO (0.1% by volume) served as a vehicle control to ascertain assay performance.
(§1) Whole cell patch clamp recordings were conducted according to Sophion standard procedure for QPatch II®. Cells were held at a holding potential of −120 mV. A depolarizing step to 10 mV for 30 ms was applied to elicit inward Na^+ currents. Inter-sweep interval was 15 sec. Following establishment of the whole-cell configuration in extracellular solution, cells were washed twice in extracellular solution containing 0.1% DMSO and 0.03% pluronic acid to stabilize the baseline current. Compounds were then applied by the QPatch II system into each well in an ascending manner within cohort and the current was recorded for five minutes for each concentration. Percent of current remaining was determined by taking the average of the last 5 sweeps within each concentration and normalizing to the latest pre-compound saline period. The potency (IC50) values of the compounds were only assessed against resting state block. Wells whose initial sodium current magnitude were below 2 nA or whole cell resistance fell below 100 MΩ were excluded from analysis.
as §1, with “MO” for “MΩ”, “analysis. […]” for “analysis.”
In general terms: In patch-clamp work, channel activity is measured electrically.

For experiment [2], the target named is T2, human Nav1.8/b3 (Homo sapiens, UniProt Q9Y5Y9).
T2 construct: expressed in transfected cells; host or cells: CHO
Kind of experiment: Compound Profiling Human NaV1.8/β3 Cell Line—SyncroPatch384PE Assay (automated patch clamp, stably transfected CHO cells). The experiment is classed as cell-based. The note with it: Nav1.8/b3 CHO cells, third set of compounds.

[3] abbreviates: P1 (IC50, resting state block), P1 measurement, resting state block, holding potential −120 mV.
The mark [4] stands for this setting: P2 (IC50, inactivated state block), P2 measurement, inactivated state block, inactivation step −35 mV 10 sec.

T2 sequence (Q9Y5Y9 whole entry): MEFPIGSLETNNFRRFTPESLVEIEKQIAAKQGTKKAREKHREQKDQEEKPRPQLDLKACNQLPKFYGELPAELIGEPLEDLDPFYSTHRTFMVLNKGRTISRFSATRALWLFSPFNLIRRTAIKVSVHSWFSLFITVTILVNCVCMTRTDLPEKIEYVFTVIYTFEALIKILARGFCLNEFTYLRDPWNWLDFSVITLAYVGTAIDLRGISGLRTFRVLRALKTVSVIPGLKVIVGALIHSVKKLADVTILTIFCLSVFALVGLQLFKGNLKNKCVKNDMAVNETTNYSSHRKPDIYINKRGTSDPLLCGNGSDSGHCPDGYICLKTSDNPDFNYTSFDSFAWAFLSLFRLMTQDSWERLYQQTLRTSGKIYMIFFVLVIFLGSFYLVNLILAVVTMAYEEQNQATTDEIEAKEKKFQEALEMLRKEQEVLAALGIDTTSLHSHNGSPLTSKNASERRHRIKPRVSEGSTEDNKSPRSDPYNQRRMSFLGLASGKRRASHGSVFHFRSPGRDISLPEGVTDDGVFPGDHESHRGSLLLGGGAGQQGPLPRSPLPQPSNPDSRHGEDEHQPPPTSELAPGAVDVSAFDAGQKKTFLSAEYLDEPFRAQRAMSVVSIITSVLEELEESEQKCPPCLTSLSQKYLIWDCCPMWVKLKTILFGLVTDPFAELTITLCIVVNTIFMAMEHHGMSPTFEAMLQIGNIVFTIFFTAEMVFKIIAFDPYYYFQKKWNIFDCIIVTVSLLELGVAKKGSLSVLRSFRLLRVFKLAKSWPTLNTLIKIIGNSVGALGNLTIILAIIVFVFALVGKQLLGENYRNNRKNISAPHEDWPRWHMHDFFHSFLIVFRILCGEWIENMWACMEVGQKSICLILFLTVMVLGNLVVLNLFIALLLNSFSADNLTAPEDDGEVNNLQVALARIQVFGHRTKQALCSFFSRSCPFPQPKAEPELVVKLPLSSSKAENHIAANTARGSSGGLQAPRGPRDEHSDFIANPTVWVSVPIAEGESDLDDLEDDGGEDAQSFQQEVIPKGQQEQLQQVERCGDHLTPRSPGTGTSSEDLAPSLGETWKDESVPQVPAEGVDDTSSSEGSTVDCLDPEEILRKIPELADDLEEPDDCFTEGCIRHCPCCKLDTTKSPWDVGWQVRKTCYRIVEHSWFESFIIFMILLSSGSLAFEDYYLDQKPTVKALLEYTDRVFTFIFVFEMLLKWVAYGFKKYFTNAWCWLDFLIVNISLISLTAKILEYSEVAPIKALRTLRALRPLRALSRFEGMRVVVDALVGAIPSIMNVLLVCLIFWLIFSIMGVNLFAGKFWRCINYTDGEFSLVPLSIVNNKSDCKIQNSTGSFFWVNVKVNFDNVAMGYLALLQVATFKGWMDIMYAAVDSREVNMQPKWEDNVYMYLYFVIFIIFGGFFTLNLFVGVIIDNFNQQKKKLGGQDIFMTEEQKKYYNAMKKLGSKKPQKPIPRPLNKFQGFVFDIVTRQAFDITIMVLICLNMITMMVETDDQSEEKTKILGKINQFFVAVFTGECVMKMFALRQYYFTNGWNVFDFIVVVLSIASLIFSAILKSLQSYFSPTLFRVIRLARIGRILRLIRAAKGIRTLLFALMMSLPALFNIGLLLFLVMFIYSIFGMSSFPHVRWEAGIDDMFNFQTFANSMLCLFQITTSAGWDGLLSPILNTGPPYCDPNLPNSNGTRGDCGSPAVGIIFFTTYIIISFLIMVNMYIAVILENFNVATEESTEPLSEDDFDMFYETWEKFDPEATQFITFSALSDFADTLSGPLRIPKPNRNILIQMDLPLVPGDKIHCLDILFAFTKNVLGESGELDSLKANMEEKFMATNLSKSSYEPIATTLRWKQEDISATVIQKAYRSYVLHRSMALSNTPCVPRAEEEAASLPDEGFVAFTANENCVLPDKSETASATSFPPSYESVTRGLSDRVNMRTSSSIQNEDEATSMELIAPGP
T2 sequence (Q9NY72 23-215 partner): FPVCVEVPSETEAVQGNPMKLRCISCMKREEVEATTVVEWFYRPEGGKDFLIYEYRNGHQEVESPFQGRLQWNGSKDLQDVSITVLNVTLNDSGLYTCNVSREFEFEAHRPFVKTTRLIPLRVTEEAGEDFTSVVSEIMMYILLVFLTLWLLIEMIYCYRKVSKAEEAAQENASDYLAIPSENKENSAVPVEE
T1 sequence (Q9Y5Y9 whole entry): as the sequence (Q9Y5Y9 whole entry) above
T1 sequence (Q07699 19-218 partner): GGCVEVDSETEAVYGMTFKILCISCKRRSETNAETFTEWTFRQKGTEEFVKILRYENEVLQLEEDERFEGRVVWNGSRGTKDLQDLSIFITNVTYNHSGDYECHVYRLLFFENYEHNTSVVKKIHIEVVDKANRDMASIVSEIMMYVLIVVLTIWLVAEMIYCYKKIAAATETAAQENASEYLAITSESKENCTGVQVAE

The IC50 is the point on the concentration scale where inhibition reaches its midpoint. For the compound `Cc1nc(F)ccc1Oc1ncc(C(F)(F)F)c(C)c1C(=O)Nc1ccc(F)c(S(C)(=O)=NCCN)c1` (stereo not drawn) [Example 88C], the figures for the IC50 in experiment [1], in experiment [2] (setting [3]) and in experiment [2] (setting [4]) were 0.005 to 0.05 µM, < 0.005 µM and < 0.005 µM, respectively.
As for `Cc1nc(F)ccc1Oc1ncc(C2CCCC2)c(C)c1C(=O)Nc1ccnc([S@](C)(=N)=O)c1` [Example 86C], the IC50 in experiment [1], in experiment [2] (setting [3]) and in experiment [2] (setting [4]) was 0.005 to 0.05 µM throughout.
The compound `CNC(C)(C)CCS(=N)(=O)c1cccc(NC(=O)c2c(Oc3ccc(F)nc3C)ncc(C(F)(F)F)c2C)c1` (stereo not drawn) [Example 50C] gave an IC50 in experiment [1] of 0.005 to 0.05 µM.
Turning to `Cc1nc(F)ccc1Oc1ncc(C(F)(F)F)c(C)c1C(=O)Nc1cncc([S@](C)(=N)=O)c1` [Example 61C], the IC50 in experiment [1] was 0.1 to 0.2 µM.
As to `Cc1nc(F)ccc1Oc1ncc(C2CCCC2)c(C)c1C(=O)Nc1cccc([S@](C)(=N)=O)c1` [Example 87C], the IC50 in experiment [1], in experiment [2] (setting [3]) and in experiment [2] (setting [4]) was 0.005 to 0.05 µM throughout.
`COc1cc(C#N)ccc1Oc1cc(C(F)(F)F)c(Cl)cc1C(=O)Nc1ccc(F)c([S@](C)(=N)=O)c1` [Example 8A, (R)-5-chloro-2-(4-cyano-2-methoxyphenoxy)-N-(4-fluoro-3-(S-methylsulfonimidoyl)phenyl)-4-(trifluoromethyl)benzamide] returned an IC50 in experiment [1] of 0.005 to 0.05 µM.
